Data published in patent US20230133657A1, “THE USE OF MENTHOL FOR THE PREPARATION OF A TOPICAL COMPOSITION TO IMPROVE NEURODEGENERATIVE DISEASE AND STROKE” (CHINA MEDICAL UNIVERSITY, priority 2020, published 2023).

Key:
[1] = system: Parkinson's disease mice (MPTP); assay: Rotarod test (endurance exercise test), Parkinson's disease mouse model; format: in vivo; conditions: forepaws soaked in 8% (wt %) menthol solution 10 seconds per day
Excerpt: Laboratory mice are divided into three groups: “Control” consisting of normal mice; “MPTP” consisting of Parkinson's disease mice fed with MPTP for creation of a disease model; “MPTP+8% ME” consisting of Parkinson's disease mice which are fed with MPTP for creation of a disease model and whose forepaws are soaked in 8% menthol. For administration of menthol, two forepaws of each “MPTP+8% ME” mouse are soaked in 8% (wt %) menthol solution for 10 seconds per day from Day 1 to Day 5 and from Day 8 to Day 10, respectively. For creation of a Parkinson's disease mouse model, MPTP (daily dosage: 10 mg/kg) is injected into “MPTP” and “MPTP+8% ME” mice through the intraperitoneal (I.P.) injection on three consecutive days from Day 3 to Day 5. By Day 10, the endurance exercise test, the dopamine assay and the immunohistochemical staining are conducted for any improvement in the symptom of Parkinson's disease due to menthol. The rotarod test is a performance test in which a rodent keeps running on a self-accelerated rotating rod activated from 4 rpm (initial rotation rate) to 40 rpm (maximum and constant rotation rate in five minutes) on Day 1 (Day 10) for estimation of the retention time of the rodent on the rotating rod (FIG. 1B). As shown in the ordinate of FIG. 1B, “A latency to fall” denotes the difference between the retention time on Day 10 and the retention time on Day 1.

[2] = system: Parkinson's disease mice (MPTP); assay: Immunohistochemical (IHC) staining of TH in substantia nigra; format: in vivo, mouse; conditions: forepaws soaked in 8% menthol
Excerpt: Laboratory mice are divided into three groups: “Control” consisting of normal mice; “MPTP” consisting of Parkinson's disease mice fed with MPTP for creation of a disease model; “MPTP+8% ME” consisting of Parkinson's disease mice which are fed with MPTP for creation of a disease model and whose forepaws are soaked in 8% menthol. For administration of menthol, two forepaws of each “MPTP+8% ME” mouse are soaked in 8% (wt %) menthol solution for 10 seconds per day from Day 1 to Day 5 and from Day 8 to Day 10, respectively. For creation of a Parkinson's disease mouse model, MPTP (daily dosage: 10 mg/kg) is injected into “MPTP” and “MPTP+8% ME” mice through the intraperitoneal (I.P.) injection on three consecutive days from Day 3 to Day 5. By Day 10, the endurance exercise test, the dopamine assay and the immunohistochemical staining are conducted for any improvement in the symptom of Parkinson's disease due to menthol. The level of TH in a mouse's substantia nigra is tested through IHC staining (FIG. 1D). […] A mouse's nerve cells containing TH for generation of dopamine could be damaged due to Parkinson's disease.

[3] = system: ischemic stroke mice (MCAO); assay: Measurement of the cerebral infarction volume (TTC staining); format: in vivo, mouse
Excerpt: Laboratory mice are divided into four groups: “Control” consisting of mice processed through MCAO for the ischemic stroke; “Water” consisting of mice which are processed for the ischemic stroke through MCAO and whose limbs are soaked in water; “MCAO+8% ME” consisting of mice which are processed for the ischemic stroke through MCAO and whose limbs are soaked in 8% menthol; “MCAO+16% ME” consisting of mice which are processed for the ischemic stroke through MCAO and whose limbs are soaked in 16% menthol. In Embodiment 2, menthol is prepared with 95% ethanol. Referring to the experiment schedule in FIG. 2A, mice are sacrificed on Day 7 for following analyses. Mice are processed for the ischemic stroke through MCAO on Day 0 and administrated with menthol once per day from Day 0 to Day 6. On the day of processing mice through MCAO, the limbs of a mouse resting 20 minutes after the operation are soaked in menthol for one minute; a mouse's limbs are soaked in menthol for 15 seconds only from Day 2 to Day 6; comparatively, a Water mouse's limbs are soaked in water. The sensorimotor nerve function test is conducted for mice one day before MCAO processing (i.e., pre-MCAO) and 1, 3 and 6 days after MCAO processing; the cerebral infarction volume is measured for checking any improvement in the stroke due to menthol on Day 7 after MCAO processing. After a mouse in each group is sacrificed through perfusion one week after MCAO processing, a specimen of the mouse's living brain is stained by TTC (FIG. 2D-2) for measurement of the cerebral infarction volume (mm^3) (FIG. 2D-1). The test results for the cerebral infarction volume are analyzed with the one-way ANOVA for further reviews through the multiple comparison analysis (Tukey's method) and statistics of between-group variances (*p<0.05). […] Laboratory mice are divided into five groups: “Water” consisting of mice which are processed for the ischemic stroke through MCAO and whose limbs are soaked in water; “8% ME” consisting of mice which are processed for the ischemic stroke through MCAO and whose limbs are soaked in 8% menthol; “16% ME” consisting of mice which are processed for the ischemic stroke through MCAO and whose limbs are soaked in 16% menthol; “Back-ME” consisting of mice which are processed for the ischemic stroke through MCAO and whose backs are soaked in menthol; “Oral-ME” consisting of mice which are processed for the ischemic stroke through MCAO and fed with menthol. […] As shown in FIGS. 4B-1 and 4B-2, the test results are analyzed with the one-way ANOVA for further reviews through the multiple comparison analysis (Duncan's method) and statistics of between-group variances (*p<0.05; *: comparison with the “Water” group; comparison with the “16% ME” group; comparison with the “8% ME” group). […]

[4] = system: ischemic stroke mice (MCAO); assay: Adhesive removal test, ischemic stroke mouse model; format: in vivo
Excerpt: Laboratory mice are divided into four groups: “Control” consisting of mice processed through MCAO for the ischemic stroke; “Water” consisting of mice which are processed for the ischemic stroke through MCAO and whose limbs are soaked in water; “MCAO+8% ME” consisting of mice which are processed for the ischemic stroke through MCAO and whose limbs are soaked in 8% menthol; “MCAO+16% ME” consisting of mice which are processed for the ischemic stroke through MCAO and whose limbs are soaked in 16% menthol. In Embodiment 2, menthol is prepared with 95% ethanol. Referring to the experiment schedule in FIG. 2A, mice are sacrificed on Day 7 for following analyses. Mice are processed for the ischemic stroke through MCAO on Day 0 and administrated with menthol once per day from Day 0 to Day 6. On the day of processing mice through MCAO, the limbs of a mouse resting 20 minutes after the operation are soaked in menthol for one minute; a mouse's limbs are soaked in menthol for 15 seconds only from Day 2 to Day 6; comparatively, a Water mouse's limbs are soaked in water. The sensorimotor nerve function test is conducted for mice one day before MCAO processing (i.e., pre-MCAO) and 1, 3 and 6 days after MCAO processing; the cerebral infarction volume is measured for checking any improvement in the stroke due to menthol on Day 7 after MCAO processing. The adhesive removal test is conducted on Day 1, 3 and 6 and the test results are compared with status at “pre-MCAO”. As shown in the experimental process, the time of a mouse finding and removing 4 (mm)×4 (mm) stickers, which have been adhered to its forepaws outside a test cage, is recorded (FIG. 2C-1, FIG. 2C-2) for statistic analysis as described in Section 2.1 (*p<0.05; **p<0.01; ***p<0.001). […] As shown in FIGS. 4B-1 and 4B-2, the test results are analyzed with the one-way ANOVA for further reviews through the multiple comparison analysis (Duncan's method) and statistics of between-group variances (*p<0.05; *: comparison with the “Water” group; comparison with the “16% ME” group; comparison with the “8% ME” group). […]

[5] = system: ischemic stroke mice (MCAO); assay: Rotarod test, ischemic stroke mouse model; format: in vivo
Excerpt: Laboratory mice are divided into four groups: “Control” consisting of mice processed through MCAO for the ischemic stroke; “Water” consisting of mice which are processed for the ischemic stroke through MCAO and whose limbs are soaked in water; “MCAO+8% ME” consisting of mice which are processed for the ischemic stroke through MCAO and whose limbs are soaked in 8% menthol; “MCAO+16% ME” consisting of mice which are processed for the ischemic stroke through MCAO and whose limbs are soaked in 16% menthol. In Embodiment 2, menthol is prepared with 95% ethanol. Referring to the experiment schedule in FIG. 2A, mice are sacrificed on Day 7 for following analyses. Mice are processed for the ischemic stroke through MCAO on Day 0 and administrated with menthol once per day from Day 0 to Day 6. On the day of processing mice through MCAO, the limbs of a mouse resting 20 minutes after the operation are soaked in menthol for one minute; a mouse's limbs are soaked in menthol for 15 seconds only from Day 2 to Day 6; comparatively, a Water mouse's limbs are soaked in water. The sensorimotor nerve function test is conducted for mice one day before MCAO processing (i.e., pre-MCAO) and 1, 3 and 6 days after MCAO processing; the cerebral infarction volume is measured for checking any improvement in the stroke due to menthol on Day 7 after MCAO processing. In the rotarod test, a mouse is placed on a self-accelerated rotating rod (rotation rate from 4 to 40 rpm) on Day 3 and Day 6 for measuring the retention time (FIG. 2B-1 and FIG. 2B-2) and comparing test results with those of “pre-MCAO”. Mice in each group are tested three times. The test results are analyzed with the one-way ANOVA for further reviews through the multiple comparison analysis (Dunnett's method) and statistics of between-group variances (*p<0.05). The asterisk (*) means a significant difference between “Control” and “Water” or “MCAO+8% ME” (*p<0.05; **p<0.01). […] As shown in FIGS. 4B-1 and 4B-2, the test results are analyzed with the one-way ANOVA for further reviews through the multiple comparison analysis (Duncan's method) and statistics of between-group variances (*p<0.05; *: comparison with the “Water” group; comparison with the “16% ME” group; comparison with the “8% ME” group). […]

[6] = MCAO mice fed with oral menthol (Oral-ME)
[7] = MCAO mice, limbs soaked in menthol (8% ME, 16% ME), topical vs oral comparison

## CC1CCC(C(C)C)C(O)C1 (stereo not shown) [menthol]
[1]
  retention time on a rotating rod (latency to fall, Day 10 vs Day 1): longer than the retention time on Day 1
[2]
  level of TH in substantia nigra: recovered and similar to that of Control mice
[3]; [6]
  cerebral infarction volume: unchanged
[3]; MCAO mice, backs administered with menthol (Back-ME)
  cerebral infarction volume: unchanged
[3]; MCAO mice, limbs soaked in 8% or 16% menthol, Day 7, TTC staining, vs Control and Water groups
  cerebral infarction volume: significantly decreases
[3]; [7]
  cerebral infarction volume: significantly subdued
[4]; limbs soaked in 8% or 16% menthol, Day 1, 3 and 6
  time spent in removing stickers: significantly shorter than time spent by Control or Water mice
[4]; limbs soaked in 8% or 16% menthol, Day 6, vs Water mice
  time spent in finding stickers: significantly less time
[4]; limbs soaked in menthol (8% ME, 16% ME), vs Water, Back-ME, Oral-ME
  time spent in finding and removing stickers: significantly shorter than other mice
[5]; [6]
  retention time on a rotating rod: not extended effectively
[5]; MCAO mice, backs administered with topical menthol (Back-ME)
  retention time on a rotating rod: not extended effectively
[5]; MCAO mice, limbs soaked in 8% or 16% menthol once per day Day 0 to Day 6, Day 3 and Day 6
  retention time on a rotating rod: longer than the retention time performed by MCAO or Water mice
[5]; [7]
  retention time on a rotating rod: longer than the retention time performed by Back-ME, Water or Oral-ME mice
